According to PubChem BioAssay (NCI):
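Exposure lasted 48 hours, with cells grown in 96-well plates and compounds tested at five concentrations. The concentration for 50% growth inhibition is given as GI50. TGI is the concentration that stops growth completely.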

Tests used:
Assay in all cases: inhibition of tumour cell growth, NCI panel, 48 h
[1] = test system: KM12 colon
[2] = test system: ACHN renal
[3] = test system: K-562 leukemia
[4] = test system: U251 CNS
[5] = test system: SK-MEL-28 melanoma
[6] = test system: SNB-19 CNS
[7] = test system: HCT-15 colon
[8] = test system: HCC-2998 colon
[9] = test system: OVCAR-8 ovarian
[10] = test system: OVCAR-4 ovarian

| SMILES | TGI [1] [µM] | TGI [2] [µM] | TGI [3] [µM] | TGI [4] [µM] | TGI [5] [µM] | TGI [6] [µM] | TGI [7] [µM] | TGI [8] [µM] | TGI [9] [µM] | TGI [10] [µM] | GI50 [1] [µM] | GI50 [2] [µM] | GI50 [3] [µM] | GI50 [4] [µM] | GI50 [5] [µM] | GI50 [6] [µM] | GI50 [7] [µM] | GI50 [8] [µM] | GI50 [9] [µM] | GI50 [10] [µM] |
| --- | --- | --- | --- | --- | --- | --- | --- | --- | --- | --- | --- | --- | --- | --- | --- | --- | --- | --- | --- | --- |
| Cc1cc(Cl)ccc1N1C(=O)C(=O)C(c2nc3ccccc3s2)/C(=N\NC(=O)c2ccccc2O)C1=O (stereo unspecified) | > 100 | > 100 | > 100 | > 100 | > 100 | > 100 | > 100 | > 100 | > 100 | > 100 |  |  |  |  |  |  |  |  |  |  |
| CCOc1ccc2c(-c3ccnc(Nc4cccc(C(F)(F)F)c4)n3)cnn2n1 | 14 | > 25 | > 25 | > 22.5 | > 25 | > 25 | > 25 | > 25 | 11.7 | > 25 | 5.07 | 16.3 | 15.9 | 6.43 | > 25 | 13.6 | > 23.8 | 22.4 | 5.44 | 9.46 |
| C=C(C)[C@@H]1CC[C@]2(C)[C@H](CC=C3[C@@H]4CC(C)(C)CC[C@]4(C(=O)OC)CC[C@]32C)[C@@]1(C)CC/C(N)=N/O | 3.6 | 5.81 | > 100 | 3.69 | 5.57 | 5.73 | 5.6 | 3.67 | 6.29 | 7.23 | 1.68 | 2.05 | 2.47 | 1.81 | 2.3 | 2.21 | 2.05 | 1.86 | 2.27 | 2.16 |
| COc1cc2c3c(n(CCCn4cccn4)c(=O)c2cc1OC)-c1cc2c(cc1C3=O)OCO2 | > 54.5 | 5.61 | > 100 | > 40.4 | > 100 | > 100 | > 100 | 64 | 54.7 | 66.1 | 5.11 | 0.396 | 3.51 | 0.724 | 5.35 | 1.08 | 14.7 | 7.13 | 2.83 | 19.7 |
| O=S(O)CCCCSSCCCCS(=O)(O)=S | > 100 | > 100 | > 100 | > 100 | > 100 | > 100 | > 100 | > 100 | > 100 | 79 |  |  |  |  |  |  |  |  |  |  |
| CC[O+]=c1cccc2ssnc1-2 | > 100 | > 100 | > 100 | > 100 | > 100 | > 100 | > 100 | > 100 | > 100 | > 100 |  |  |  |  |  |  |  |  |  |  |
| Cc1ccc(S(=O)(=O)NC(C)C(=O)O)cc1 (stereo unspecified) | > 100 | > 100 | > 100 | > 100 | > 100 | > 100 | > 100 | > 100 | > 100 | > 100 |  |  | > 100 |  |  |  |  |  |  |  |
